{
  "source": "patent US20050009060A1",
  "about": "“Multiplexed multitarget screening method” (priority 2003, published 2005)",
  "molecular_target": "5HT2A receptor (Homo sapiens, UniProt P28223)",
  "sequence (P28223 whole entry)": "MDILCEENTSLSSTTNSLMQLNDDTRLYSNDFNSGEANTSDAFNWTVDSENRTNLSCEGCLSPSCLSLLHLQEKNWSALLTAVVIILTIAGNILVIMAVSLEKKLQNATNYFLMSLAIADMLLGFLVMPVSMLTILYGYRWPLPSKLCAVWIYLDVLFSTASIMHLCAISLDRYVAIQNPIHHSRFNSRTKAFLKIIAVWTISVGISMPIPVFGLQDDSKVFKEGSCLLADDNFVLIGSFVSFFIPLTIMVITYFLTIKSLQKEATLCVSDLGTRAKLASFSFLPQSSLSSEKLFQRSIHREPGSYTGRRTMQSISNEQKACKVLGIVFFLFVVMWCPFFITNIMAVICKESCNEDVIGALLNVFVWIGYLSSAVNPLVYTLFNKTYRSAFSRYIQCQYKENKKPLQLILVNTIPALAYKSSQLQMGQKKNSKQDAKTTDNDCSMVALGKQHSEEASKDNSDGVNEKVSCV",
  "test": "Ca2+i mobilization by autosampling flow cytometry, single cell threshold analysis, Indo-1-loaded cells",
  "format": "cell-based",
  "settings": "1 uM serotonin; percent of cells with Ca2+i at least 2 SD above mean of buffer control",
  "description": "Left panel: distribution of Ca^2+i levels measured by intensity ratio, and determination of threshold level as shown by arrow.\nA rotated histogram plot of such a response, and of the basal population, is shown in the left panel of FIG. 22, where the Ca^2+i level is shown on the x-axis and the number of cells attaining each Ca^2+i level is on the y-axis. […] The threshold is set by calculating the mean of the Ca^2+i level in the buffer control sample and calculating one (1) or more standard deviations above the mean. The choice to use one or more standard deviations is based on minimizing the error between buffer control samples and fully activated positive control samples. […] A threshold level at two standard deviations above the mean Ca^2+i level is shown by the arrow. Because the single cell flow cytometry as provided herein can analyze samples rapidly, about 100 to 200 cells, or more, can be analyzed in a short period. […] Data analysis is implemented in an automated software algorithm that automatically calculates Chi Square values along with the response frequency for each sample.",
  "data": [
    {"smiles": "NCCc1c[nH]c2ccc(O)cc12", "note": "[serotonin]", "values": [
      {"measurement": "signal to baseline ratio (stimulated to unstimulated response frequency)", "value": "over 50"}
    ]}
  ]
}
